# Measurements as given in ChEMBL document CHEMBL3046407, “Toxicity of monoterpenes against larvae and adults of Colorado potato beetle, Leptinotarsa decemlineata Say (Coleoptera: Chrysomelidae)” (2007).
# What was measured:
# [1] = system: Leptinotarsa decemlineata; experiment: Insecticidal activity against third-instar larval stage of Leptinotarsa decemlineata infested potato leaves assessed as mortality at 10 mg after 12 hr relative to control; assay type: functional
# [2] = system: Leptinotarsa decemlineata; experiment: Insecticidal activity against adult Leptinotarsa decemlineata infested potato leaves assessed as mortality at 20 mg after 96 hr relative to control; assay type: functional
# [3] = system: Leptinotarsa decemlineata; experiment: Insecticidal activity against first-instar larval stage of Leptinotarsa decemlineata infested potato leaves assessed as mortality at 10 mg after 48 hr relative to control; assay type: functional
# [4] = system: Leptinotarsa decemlineata; experiment: Insecticidal activity against first-instar larval stage of Leptinotarsa decemlineata infested potato leaves assessed as mortality at 20 mg after 96 hr relative to control; assay type: functional
# [5] = system: Leptinotarsa decemlineata; experiment: Insecticidal activity against first-instar larval stage of Leptinotarsa decemlineata infested potato leaves assessed as mortality at 20 mg after 48 hr relative to control; assay type: functional
# [6] = system: Leptinotarsa decemlineata; experiment: Insecticidal activity against first-instar larval stage of Leptinotarsa decemlineata infested potato leaves assessed as mortality at 20 mg after 24 hr relative to control; assay type: functional
# [7] = system: Leptinotarsa decemlineata; experiment: Insecticidal activity against first-instar larval stage of Leptinotarsa decemlineata infested potato leaves assessed as mortality at 20 mg after 12 hr relative to control; assay type: functional
# [8] = system: Leptinotarsa decemlineata; experiment: Insecticidal activity against first-instar larval stage of Leptinotarsa decemlineata infested potato leaves assessed as mortality at 10 mg after 96 hr relative to control; assay type: functional
# [9] = system: Leptinotarsa decemlineata; experiment: Insecticidal activity against first-instar larval stage of Leptinotarsa decemlineata infested potato leaves assessed as mortality at 10 mg after 24 hr relative to control; assay type: functional
# [10] = system: Leptinotarsa decemlineata; experiment: Insecticidal activity against adult Leptinotarsa decemlineata infested potato leaves assessed as mortality at 20 mg after 48 hr relative to control; assay type: functional
# [11] = system: Leptinotarsa decemlineata; experiment: Insecticidal activity against adult Leptinotarsa decemlineata infested potato leaves assessed as mortality at 20 mg after 24 hr relative to control; assay type: functional
# [12] = system: Leptinotarsa decemlineata; experiment: Insecticidal activity against adult Leptinotarsa decemlineata infested potato leaves assessed as mortality at 20 mg after 12 hr relative to control; assay type: functional
# [13] = system: Leptinotarsa decemlineata; experiment: Insecticidal activity against adult Leptinotarsa decemlineata infested potato leaves assessed as mortality at 10 mg after 96 hr relative to control; assay type: functional
# [14] = system: Leptinotarsa decemlineata; experiment: Insecticidal activity against adult Leptinotarsa decemlineata infested potato leaves assessed as mortality at 10 mg after 48 hr relative to control; assay type: functional
# [15] = system: Leptinotarsa decemlineata; experiment: Insecticidal activity against adult Leptinotarsa decemlineata infested potato leaves assessed as mortality at 10 mg after 24 hr relative to control; assay type: functional
# [16] = system: Leptinotarsa decemlineata; experiment: Insecticidal activity against adult Leptinotarsa decemlineata infested potato leaves assessed as mortality at 10 mg after 12 hr relative to control; assay type: functional
# [17] = system: Leptinotarsa decemlineata; experiment: Insecticidal activity against first-instar larval stage of Leptinotarsa decemlineata infested potato leaves assessed as mortality at 10 mg after 12 hr relative to control; assay type: functional
# [18] = system: Leptinotarsa decemlineata; assay type: functional, Instar larval stage
# [19] = system: Leptinotarsa decemlineata; assay type: functional, Instar larval stage; remark: listed apart in the source
# [20] = system: Leptinotarsa decemlineata; experiment: Insecticidal activity against third-instar larval stage of Leptinotarsa decemlineata infested potato leaves assessed as mortality at 20 mg after 24 hr relative to control; assay type: functional
# [21] = system: Leptinotarsa decemlineata; experiment: Insecticidal activity against third-instar larval stage of Leptinotarsa decemlineata infested potato leaves assessed as mortality at 20 mg after 12 hr relative to control; assay type: functional
# [22] = system: Leptinotarsa decemlineata; assay type: functional, Instar larval stage; remark: listed apart in the source
# [23] = system: Leptinotarsa decemlineata; assay type: functional, Instar larval stage; remark: listed apart in the source
# [24] = system: Leptinotarsa decemlineata; experiment: Insecticidal activity against third-instar larval stage of Leptinotarsa decemlineata infested potato leaves assessed as mortality at 10 mg after 24 hr relative to control; assay type: functional
# [25] = system: Leptinotarsa decemlineata; experiment: Insecticidal activity against second-instar larval stage of Leptinotarsa decemlineata infested potato leaves assessed as mortality at 20 ul after 96 hr (reference value: 3.3 +/- 3.3%); assay type: functional
# [26] = system: Leptinotarsa decemlineata; experiment: Insecticidal activity against second-instar larval stage of Leptinotarsa decemlineata infested potato leaves assessed as mortality at 20 ul after 48 hr (reference value: 3.3 +/- 3.3%); assay type: functional
# [27] = system: Leptinotarsa decemlineata; experiment: Insecticidal activity against second-instar larval stage of Leptinotarsa decemlineata infested potato leaves assessed as mortality at 20 ul after 24 hr (reference value: 3.3 +/- 3.3%); assay type: functional
# [28] = system: Leptinotarsa decemlineata; experiment: Insecticidal activity against second-instar larval stage of Leptinotarsa decemlineata infested potato leaves assessed as mortality at 10 ul after 12 hr relative to control; assay type: functional
# [29] = system: Leptinotarsa decemlineata; experiment: Insecticidal activity against adult Leptinotarsa decemlineata infested potato leaves assessed as mortality at 20 ul after 96 hr relative to control; assay type: functional
# [30] = system: Leptinotarsa decemlineata; experiment: Insecticidal activity against adult Leptinotarsa decemlineata infested potato leaves assessed as mortality at 20 ul after 48 hr relative to control; assay type: functional
# [31] = system: Leptinotarsa decemlineata; experiment: Insecticidal activity against adult Leptinotarsa decemlineata infested potato leaves assessed as mortality at 20 ul after 24 hr relative to control; assay type: functional
# [32] = system: Leptinotarsa decemlineata; experiment: Insecticidal activity against adult Leptinotarsa decemlineata infested potato leaves assessed as mortality at 20 ul after 12 hr relative to control; assay type: functional
# [33] = system: Leptinotarsa decemlineata; experiment: Insecticidal activity against adult Leptinotarsa decemlineata infested potato leaves assessed as mortality at 10 ul after 96 hr relative to control; assay type: functional
# [34] = system: Leptinotarsa decemlineata; experiment: Insecticidal activity against adult Leptinotarsa decemlineata infested potato leaves assessed as mortality at 10 ul after 48 hr relative to control; assay type: functional
# [35] = system: Leptinotarsa decemlineata; experiment: Insecticidal activity against adult Leptinotarsa decemlineata infested potato leaves assessed as mortality at 10 ul after 24 hr relative to control; assay type: functional
# [36] = system: Leptinotarsa decemlineata; experiment: Insecticidal activity against adult Leptinotarsa decemlineata infested potato leaves assessed as mortality at 10 ul after 12 hr relative to control; assay type: functional
# [37] = system: Leptinotarsa decemlineata; experiment: Insecticidal activity against second-instar larval stage of Leptinotarsa decemlineata infested potato leaves assessed as mortality at 20 ul after 12 hr relative to control; assay type: functional
# [38] = system: Leptinotarsa decemlineata; experiment: Insecticidal activity against second-instar larval stage of Leptinotarsa decemlineata infested potato leaves assessed as mortality at 10 ul after 96 hr (reference value: 3.3 +/- 3.3%); assay type: functional
# [39] = system: Leptinotarsa decemlineata; experiment: Insecticidal activity against second-instar larval stage of Leptinotarsa decemlineata infested potato leaves assessed as mortality at 10 ul after 48 hr (reference value: 3.3 +/- 3.3%); assay type: functional
# [40] = system: Leptinotarsa decemlineata; experiment: Insecticidal activity against second-instar larval stage of Leptinotarsa decemlineata infested potato leaves assessed as mortality at 10 ul after 24 hr (reference value: 3.3 +/- 3.3%); assay type: functional
# [41] = system: Leptinotarsa decemlineata; experiment: Insecticidal activity against first-instar larval stage of Leptinotarsa decemlineata infested potato leaves assessed as mortality at 20 ul after 96 hr relative to control; assay type: functional
# [42] = system: Leptinotarsa decemlineata; experiment: Insecticidal activity against first-instar larval stage of Leptinotarsa decemlineata infested potato leaves assessed as mortality at 20 ul after 48 hr relative to control; assay type: functional
# [43] = system: Leptinotarsa decemlineata; experiment: Insecticidal activity against first-instar larval stage of Leptinotarsa decemlineata infested potato leaves assessed as mortality at 20 ul after 24 hr relative to control; assay type: functional
# [44] = system: Leptinotarsa decemlineata; experiment: Insecticidal activity against first-instar larval stage of Leptinotarsa decemlineata infested potato leaves assessed as mortality at 20 ul after 12 hr relative to control; assay type: functional
# [45] = system: Leptinotarsa decemlineata; experiment: Insecticidal activity against first-instar larval stage of Leptinotarsa decemlineata infested potato leaves assessed as mortality at 10 ul after 96 hr relative to control; assay type: functional
# [46] = system: Leptinotarsa decemlineata; experiment: Insecticidal activity against first-instar larval stage of Leptinotarsa decemlineata infested potato leaves assessed as mortality at 10 ul after 48 hr relative to control; assay type: functional
# [47] = system: Leptinotarsa decemlineata; experiment: Insecticidal activity against first-instar larval stage of Leptinotarsa decemlineata infested potato leaves assessed as mortality at 10 ul after 12 hr relative to control; assay type: functional
# [48] = system: Leptinotarsa decemlineata; experiment: Insecticidal activity against first-instar larval stage of Leptinotarsa decemlineata infested potato leaves assessed as mortality at 10 ul after 24 hr relative to control; assay type: functional
# [49] = system: Leptinotarsa decemlineata; experiment: Insecticidal activity against third-instar larval stage of Leptinotarsa decemlineata infested potato leaves assessed as mortality at 20 ul after 96 hr (reference value: 3.3 +/- 3.3%); assay type: functional
# [50] = system: Leptinotarsa decemlineata; experiment: Insecticidal activity against third-instar larval stage of Leptinotarsa decemlineata infested potato leaves assessed as mortality at 20 ul after 48 hr (reference value: 3.3 +/- 3.3%); assay type: functional
# [51] = system: Leptinotarsa decemlineata; experiment: Insecticidal activity against third-instar larval stage of Leptinotarsa decemlineata infested potato leaves assessed as mortality at 20 ul after 24 hr relative to control; assay type: functional
# [52] = system: Leptinotarsa decemlineata; experiment: Insecticidal activity against third-instar larval stage of Leptinotarsa decemlineata infested potato leaves assessed as mortality at 20 ul after 12 hr relative to control; assay type: functional
# [53] = system: Leptinotarsa decemlineata; experiment: Insecticidal activity against third-instar larval stage of Leptinotarsa decemlineata infested potato leaves assessed as mortality at 10 ul after 96 hr (reference value: 3.3 +/- 3.3%); assay type: functional
# [54] = system: Leptinotarsa decemlineata; experiment: Insecticidal activity against third-instar larval stage of Leptinotarsa decemlineata infested potato leaves assessed as mortality at 10 ul after 48 hr (reference value: 3.3 +/- 3.3%); assay type: functional
# [55] = system: Leptinotarsa decemlineata; experiment: Insecticidal activity against third-instar larval stage of Leptinotarsa decemlineata infested potato leaves assessed as mortality at 10 ul after 24 hr relative to control; assay type: functional
# [56] = system: Leptinotarsa decemlineata; experiment: Insecticidal activity against third-instar larval stage of Leptinotarsa decemlineata infested potato leaves assessed as mortality at 10 ul after 12 hr relative to control; assay type: functional
structure (smiles),measurement,setting,value
C=C1C2CCC(C2)C1(C)C (stereo unspecified) [CAMPHENE],mortality,[1],0%
same,mortality,[2],76.7%
same,mortality,[3],6.7%
same,mortality,[4],26.7%
same,mortality,[5],23.3%
same,mortality,[6],23.3%
same,mortality,[7],13.3%
same,mortality,[8],10%
same,mortality,[9],0%
same,mortality,[10],76.7%
same,mortality,[11],73.3%
same,mortality,[12],30%
same,mortality,[13],13.3%
same,mortality,[14],13.3%
same,mortality,[15],13.3%
same,mortality,[16],6.7%
same,mortality,[17],0%
same,mortality,[18],50%
same,mortality,[19],46.7%
same,mortality,[20],43.3%
same,mortality,[21],16.7%
same,mortality,[22],10%
same,mortality,[23],6.7%
same,mortality,[24],0%
C=C(C)C1CCC2(C)OC2C1 (stereo unspecified) [LIMONENE OXIDE],mortality,[25],96.7%
same,mortality,[26],93.3%
same,mortality,[27],93.3%
same,mortality,[28],30%
same,mortality,[29],56.7%
same,mortality,[30],40%
same,mortality,[31],20%
same,mortality,[32],16.7%
same,mortality,[33],30%
same,mortality,[34],20%
same,mortality,[35],16.7%
same,mortality,[36],10%
same,mortality,[37],60%
same,mortality,[38],90%
same,mortality,[39],83.3%
same,mortality,[40],73.3%
same,mortality,[41],100%
same,mortality,[42],100%
same,mortality,[43],93.3%
same,mortality,[44],70%
same,mortality,[45],93.3%
same,mortality,[46],80%
same,mortality,[47],26.7%
same,mortality,[48],53.3%
same,mortality,[49],56.7%
same,mortality,[50],46.7%
same,mortality,[51],33.3%
same,mortality,[52],13.3%
same,mortality,[53],46.7%
same,mortality,[54],43.3%
same,mortality,[55],23.3%
same,mortality,[56],13.3%
